Test results taken from patent US6914045B2, “Glycopeptide antibiotics” (Wyeth Holdings Corporation, priority 2001, dated 2005).
≈ marks a conversion by molar mass, not a printed value.

Legend:
Experiment in all cases: in vitro antibacterial evaluation, MIC by broth dilution
Assay type in all cases: cell-based
Streptococcus sp. = settings: broth dilution, 18 hours at 35° C.
In short: (§1)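 Step 1: dilute antibiotic across 64-0.06 μg/mL in Muller-Hinton II […]. Step 2: inoculate at 5×10^5 CFU/mL.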

Enterococcus sp. = settings: broth dilution, 18 hours at 35° C.
In short: as §1

Staphylococcus sp. = settings: broth dilution, 18 hours at 35° C.
In short: as §1

Escherichia coli = settings: 18 hours at 35° C.

CCCCCNC(=O)OC1C(CO)OC(OC2C(CO)OC(Oc3ccc(CC4NC(=O)C(C(C)c5ccccc5)NC(=O)CNC(=O)C(CO)NC(=O)C(C(O)C5CNC(=N)N5C5OC(CO)C(O)C(O)C5O)NC(=O)C(C(O)C5CNC(=N)N5)NC4=O)cc3)C(O)C2O)C(O)C1O (stereo not drawn) [Example 251]
MIC Streptococcus agalactiae (GC 4564) (Streptococcus sp.): >64 µg/mL | MIC Streptococcus pneumoniae (GC 4565) (Streptococcus sp.): 64 µg/mL (≈ 45.4 µM) | MIC Streptococcus pyogenes (ID-3187) (Streptococcus sp.): 64 µg/mL (≈ 45.4 µM) | MIC Streptococcus agalactiae (GC 4564) (Streptococcus sp.; strain GC 4564): >64 µg/mL | MIC Streptococcus pneumoniae (GC 4565) (Streptococcus sp.; strain GC 4565): 64 µg/mL (≈ 45.4 µM) | MIC Streptococcus pyogenes (ID-3187) (Streptococcus sp.; strain ID-3187): 64 µg/mL (≈ 45.4 µM) | MIC Enterococcus avium (GC 4558) (Enterococcus sp.): >64 µg/mL | MIC Enterococcus faecalis (ATCC 29212) (Enterococcus sp.): >64 µg/mL | MIC Enterococcus faecalis (GC 2242) (Enterococcus sp.): >64 µg/mL | MIC Enterococcus faecalis (GC 4552) (Enterococcus sp.): >64 µg/mL | MIC Enterococcus faecalis (GC 4553) (Enterococcus sp.): >64 µg/mL | MIC Enterococcus faecalis (GC 4554) (Enterococcus sp.): >64 µg/mL | MIC Enterococcus faecium (GC 2243) (Enterococcus sp.): >64 µg/mL | MIC Enterococcus faecium (GC 4556) (Enterococcus sp.): >64 µg/mL | MIC Enterococcus faecium (GC 4557) (Enterococcus sp.): 64 µg/mL (≈ 45.4 µM) | MIC Enterococcus faecalis (ATCC 29212) (Enterococcus sp.; strain ATCC 29212): >64 µg/mL | MIC Enterococcus faecalis (GC 2242) (Enterococcus sp.; strain GC 2242): >64 µg/mL | MIC Enterococcus faecium (GC 2243) (Enterococcus sp.; strain GC 2243): >64 µg/mL | MIC Enterococcus faecalis (GC 4552) (Enterococcus sp.; strain GC 4552): >64 µg/mL | MIC Enterococcus faecalis (GC 4553) (Enterococcus sp.; strain GC 4553): >64 µg/mL | MIC Enterococcus faecalis (GC 4554) (Enterococcus sp.; strain GC 4554): >64 µg/mL | MIC Enterococcus faecium (GC 4556) (Enterococcus sp.; strain GC 4556): >64 µg/mL | MIC Enterococcus faecium (GC 4557) (Enterococcus sp.; strain GC 4557): 64 µg/mL (≈ 45.4 µM) | MIC Enterococcus avium (GC 4558) (Enterococcus sp.; strain GC 4558): >64 µg/mL | MIC Coagulase Negative Staphylococcus (GC 4547) (Staphylococcus sp.): >64 µg/mL | MIC Coagulase Negative Staphylococcus (GC 4548) (Staphylococcus sp.): >64 µg/mL | MIC Coagulase Negative Staphylococcus (GC 4549) (Staphylococcus sp.): >64 µg/mL | MIC Coagulase Negative Staphylococcus (GC 4551) (Staphylococcus sp.): >64 µg/mL | MIC Coagulase Negative Staphylococcus (ID-3941) (Staphylococcus sp.): 64 µg/mL (≈ 45.4 µM) | MIC Staphylococcus aureus (ATCC 29213) (Staphylococcus sp.): >64 µg/mL | MIC Staphylococcus aureus (GC 1131) (Staphylococcus sp.): >64 µg/mL | MIC Staphylococcus aureus (GC 4541) (Staphylococcus sp.): >64 µg/mL | MIC Staphylococcus aureus (GC 4542) (Staphylococcus sp.): >64 µg/mL | MIC Staphylococcus aureus (GC 4544) (Staphylococcus sp.): >64 µg/mL | MIC Staphylococcus aureus (GC 4545) (Staphylococcus sp.): >64 µg/mL | MIC Staphylococcus aureus-SMITH (GC 4543) (Staphylococcus sp.): >64 µg/mL | MIC Staphylococcus haemolyticus (GC 4546) (Staphylococcus sp.): >64 µg/mL | MIC Staphylococcus aureus (ATCC 29213) (Staphylococcus sp.; strain ATCC 29213): >64 µg/mL | MIC Staphylococcus aureus (GC 1131) (Staphylococcus sp.; strain GC 1131): >64 µg/mL | MIC Staphylococcus aureus (GC 4541) (Staphylococcus sp.; strain GC 4541): >64 µg/mL | MIC Staphylococcus aureus (GC 4542) (Staphylococcus sp.; strain GC 4542): >64 µg/mL | MIC Staphylococcus aureus-SMITH (GC 4543) (Staphylococcus sp.; strain GC 4543): >64 µg/mL | MIC Staphylococcus aureus (GC 4544) (Staphylococcus sp.; strain GC 4544): >64 µg/mL | MIC Staphylococcus aureus (GC 4545) (Staphylococcus sp.; strain GC 4545): >64 µg/mL | MIC Staphylococcus haemolyticus (GC 4546) (Staphylococcus sp.; strain GC 4546): >64 µg/mL | MIC Coagulase Negative Staphylococcus (GC 4547) (Staphylococcus sp.; strain GC 4547): >64 µg/mL | MIC Coagulase Negative Staphylococcus (GC 4548) (Staphylococcus sp.; strain GC 4548): >64 µg/mL | MIC Coagulase Negative Staphylococcus (GC 4549) (Staphylococcus sp.; strain GC 4549): >64 µg/mL | MIC Coagulase Negative Staphylococcus (GC 4551) (Staphylococcus sp.; strain GC 4551): >64 µg/mL | MIC Coagulase Negative Staphylococcus (ID-3941) (Staphylococcus sp.; strain ID-3941): 64 µg/mL (≈ 45.4 µM) | MIC Escherichia coli (ATCC 25922) (Escherichia coli): >64 µg/mL | MIC Escherichia coli (GC 4559) (Escherichia coli): >64 µg/mL | MIC Escherichia coli (GC 4560) (Escherichia coli): 4 µg/mL (≈ 2.84 µM)

COc1ccc2cc(COC3C(OC4C(CO)OC(Oc5ccc(CC6NC(=O)C(C(C)c7ccccc7)NC(=O)CNC(=O)C(CO)NC(=O)C(CC7CNC(=N)N7C7OC(CO)C(O)C(O)C7O)NC(=O)C(CC7CNC(=N)N7)NC6=O)cc5)C(O)C4O)OC(CO)C(O)C3O)ccc2c1 (stereo not drawn) [Example 245c]
MIC Streptococcus agalactiae (GC 4564) (Streptococcus sp.): 128 µg/mL (≈ 89.3 µM) | MIC Streptococcus pneumoniae (ATCC 6301) (Streptococcus sp.): 64 µg/mL (≈ 44.6 µM) | MIC Streptococcus pneumoniae (GC 1894) (Streptococcus sp.): 32 µg/mL (≈ 22.3 µM) | MIC Streptococcus pneumoniae (GC 4565) (Streptococcus sp.): 64 µg/mL (≈ 44.6 µM) | MIC Streptococcus pyogenes (GC 4563) (Streptococcus sp.): 128 µg/mL (≈ 89.3 µM) | MIC Streptococcus pneumoniae (ATCC 6301) (Streptococcus sp.; inoculum 5×10^5 CFU/mL, strain ATCC 6301): 64 µg/mL (≈ 44.6 µM) | MIC Streptococcus pneumoniae (GC 1894) (Streptococcus sp.; inoculum 5×10^5 CFU/mL, strain GC 1894): 32 µg/mL (≈ 22.3 µM) | MIC Streptococcus pyogenes (GC 4563) (Streptococcus sp.; inoculum 5×10^5 CFU/mL, strain GC 4563): 128 µg/mL (≈ 89.3 µM) | MIC Streptococcus agalactiae (GC 4564) (Streptococcus sp.; inoculum 5×10^5 CFU/mL, strain GC 4564): 128 µg/mL (≈ 89.3 µM) | MIC Streptococcus pneumoniae (GC 4565) (Streptococcus sp.; inoculum 5×10^5 CFU/mL, strain GC 4565): 64 µg/mL (≈ 44.6 µM) | MIC Enterococcus avium (GC 4558) (Enterococcus sp.): >128 µg/mL | MIC Enterococcus faecalis (ATCC 29212) (Enterococcus sp.): >128 µg/mL | MIC Enterococcus faecalis (GC 2242) (Enterococcus sp.): >128 µg/mL | MIC Enterococcus faecalis (GC 2691) (Enterococcus sp.): >128 µg/mL | MIC Enterococcus faecalis (GC 3059) (Enterococcus sp.): >128 µg/mL | MIC Enterococcus faecalis (GC 4552) (Enterococcus sp.): >128 µg/mL | MIC Enterococcus faecalis (GC 4553) (Enterococcus sp.): >128 µg/mL | MIC Enterococcus faecalis (GC 4554) (Enterococcus sp.): >128 µg/mL | MIC Enterococcus faecalis (GC 6189) (Enterococcus sp.): >128 µg/mL | MIC Enterococcus faecium (GC 2243) (Enterococcus sp.): >128 µg/mL | MIC Enterococcus faecium (GC 4556) (Enterococcus sp.): >128 µg/mL | MIC Enterococcus faecium (GC 4557) (Enterococcus sp.): 64 µg/mL (≈ 44.6 µM) | MIC Enterococcus faecalis (ATCC 29212) (Enterococcus sp.; strain ATCC 29212): >128 µg/mL | MIC Enterococcus faecium (GC 2243) (Enterococcus sp.; strain GC 2243): >128 µg/mL | MIC Enterococcus faecalis (GC 4552) (Enterococcus sp.; strain GC 4552): >128 µg/mL | MIC Enterococcus faecalis (GC 4553) (Enterococcus sp.; strain GC 4553): >128 µg/mL | MIC Enterococcus faecalis (GC 4554) (Enterococcus sp.; strain GC 4554): >128 µg/mL | MIC Enterococcus faecium (GC 4556) (Enterococcus sp.; strain GC 4556): >128 µg/mL | MIC Enterococcus faecium (GC 4557) (Enterococcus sp.; strain GC 4557): 64 µg/mL (≈ 44.6 µM) | MIC Enterococcus avium (GC 4558) (Enterococcus sp.; strain GC 4558): >128 µg/mL | MIC Enterococcus faecalis (GC 6189) (Enterococcus sp.; strain GC 6189): >128 µg/mL | MIC Enterococcus faecalis (GC 2242) (Enterococcus sp.; inoculum 5×10^5 CFU/mL, strain GC 2242): >128 µg/mL | MIC Enterococcus faecalis (GC 2691) (Enterococcus sp.; inoculum 5×10^5 CFU/mL, strain GC 2691): >128 µg/mL | MIC Enterococcus faecalis (GC 3059) (Enterococcus sp.; inoculum 5×10^5 CFU/mL, strain GC 3059): >128 µg/mL | MIC Coagulase Negative Staphylococcus (GC 4547) (Staphylococcus sp.): 128 µg/mL (≈ 89.3 µM) | MIC Coagulase Negative Staphylococcus (GC 4548) (Staphylococcus sp.): 128 µg/mL (≈ 89.3 µM) | MIC Coagulase Negative Staphylococcus (GC 4549) (Staphylococcus sp.): 64 µg/mL (≈ 44.6 µM) | MIC Coagulase Negative Staphylococcus (GC 4551) (Staphylococcus sp.): 128 µg/mL (≈ 89.3 µM) | MIC Coagulase Negative Staphylococcus (GC 6257) (Staphylococcus sp.): 64 µg/mL (≈ 44.6 µM) | MIC Staphylococcus aureus (ATCC 29213) (Staphylococcus sp.): 128 µg/mL (≈ 89.3 µM) | MIC Staphylococcus aureus (GC 1131) (Staphylococcus sp.): >128 µg/mL | MIC Staphylococcus aureus (GC 3051) (Staphylococcus sp.): 128 µg/mL (≈ 89.3 µM) | MIC Staphylococcus aureus (GC 3053) (Staphylococcus sp.): >128 µg/mL | MIC Staphylococcus aureus (GC 4541) (Staphylococcus sp.): 128 µg/mL (≈ 89.3 µM) | MIC Staphylococcus aureus (GC 4542) (Staphylococcus sp.): 128 µg/mL (≈ 89.3 µM) | MIC Staphylococcus aureus (GC 4544) (Staphylococcus sp.): 128 µg/mL (≈ 89.3 µM) | MIC Staphylococcus aureus (GC 4545) (Staphylococcus sp.): 128 µg/mL (≈ 89.3 µM) | MIC Staphylococcus aureus-SMITH (GC 4543) (Staphylococcus sp.): 128 µg/mL (≈ 89.3 µM) | MIC Staphylococcus haemolyticus (GC 4546) (Staphylococcus sp.): 128 µg/mL (≈ 89.3 µM) | MIC Staphylococcus aureus (ATCC 29213) (Staphylococcus sp.; strain ATCC 29213): 128 µg/mL (≈ 89.3 µM) | MIC Staphylococcus aureus (GC 1131) (Staphylococcus sp.; strain GC 1131): >128 µg/mL | MIC Staphylococcus aureus (GC 3051) (Staphylococcus sp.; strain GC 3051): 128 µg/mL (≈ 89.3 µM) | MIC Staphylococcus aureus (GC 3053) (Staphylococcus sp.; strain GC 3053): >128 µg/mL | MIC Staphylococcus aureus (GC 4541) (Staphylococcus sp.; strain GC 4541): 128 µg/mL (≈ 89.3 µM) | MIC Staphylococcus aureus (GC 4542) (Staphylococcus sp.; strain GC 4542): 128 µg/mL (≈ 89.3 µM) | MIC Staphylococcus aureus-SMITH (GC 4543) (Staphylococcus sp.; strain GC 4543): 128 µg/mL (≈ 89.3 µM) | MIC Staphylococcus aureus (GC 4544) (Staphylococcus sp.; strain GC 4544): 128 µg/mL (≈ 89.3 µM) | MIC Staphylococcus aureus (GC 4545) (Staphylococcus sp.; strain GC 4545): 128 µg/mL (≈ 89.3 µM) | MIC Staphylococcus haemolyticus (GC 4546) (Staphylococcus sp.; strain GC 4546): 128 µg/mL (≈ 89.3 µM) | MIC Coagulase Negative Staphylococcus (GC 4547) (Staphylococcus sp.; strain GC 4547): 128 µg/mL (≈ 89.3 µM) | MIC Coagulase Negative Staphylococcus (GC 4548) (Staphylococcus sp.; strain GC 4548): 128 µg/mL (≈ 89.3 µM) | MIC Coagulase Negative Staphylococcus (GC 4549) (Staphylococcus sp.; strain GC 4549): 64 µg/mL (≈ 44.6 µM) | MIC Coagulase Negative Staphylococcus (GC 4551) (Staphylococcus sp.; strain GC 4551): 128 µg/mL (≈ 89.3 µM) | MIC Coagulase Negative Staphylococcus (GC 6257) (Staphylococcus sp.; strain GC 6257): 64 µg/mL (≈ 44.6 µM) | MIC Escherichia coli (ATCC 25922) (Escherichia coli): >128 µg/mL | MIC Escherichia coli (GC 4559) (Escherichia coli): >128 µg/mL | MIC Escherichia coli (GC 4560) (Escherichia coli): 32 µg/mL (≈ 22.3 µM)
